Laboratory results published in patent US20100047762A1, “METHOD TO MONITOR DRUG EFFICACY IN DIABETIC PATIENTS USING AN ASSAY FOR 1,5-ANHYDRO-D-GLUCITOL” (NIPPON KAYAKU KABUSHIKI KAISHA, priority 2007, published 2010).

Tests used:
[1] = following a meal; cited from earlier work
[2] = system: patients with type I diabetes (T1DM); experiment: Post-hoc analysis of randomized, double-blind, placebo-controlled study of pramlintide in T1DM subjects on intensive insulin therapy (baseline HbA1c≦8%); type: in vivo, human
Description: 1,5-AG was assessed as a marker of post-prandial blood glucose (PPG) control in pramlintide-treated patients with type I diabetes (TIDM). PPG is the glucose that appears in the blood stream and tissues after a meal. PPG predominates in the serum over average fasting glucose at HbA1c's less than 8.5%. Antihyperglycemic drugs affect PPG.
Post-hoc analysis of a randomized, double-blind, placebo-controlled study of a subset of subjects with T1DM on intensive insulin therapy with a baseline HbA1c≦8% (N=37, age 40±12 y; HbA1c 7.5±0.3%; weight 85.9±20.8 kg; mean±SD) treated with pramlintide (30/60 μg) or placebo with major meals.
• HbA1c, weight, and insulin dose measured at scheduled visits • Pre-prandial and post-prandial self-monitored blood glucose (SMBG) daily • Plasma 1,5-AG (GlycoMark assay) measured at baseline and week 29
• All evaluable subjects with a baseline HbA1c≦8% and 1,5-AG measured at baseline and week 29 • Mean (±SE) change from baseline HbA1c, body weight, PPG, insulin use and 1,5-AG at week 29 • A repeated measures analysis across all study visits was performed comparing pramlintide and placebo groups

CC[C@H](C)[C@H](NC(=O)[C@@H]1CCCN1C(=O)CNC(=O)[C@H](Cc1ccccc1)NC(=O)[C@H](CC(N)=O)NC(=O)[C@H](CC(N)=O)NC(=O)[C@H](CO)NC(=O)[C@H](CO)NC(=O)[C@H](Cc1c[nH]cn1)NC(=O)[C@@H](NC(=O)[C@H](CC(C)C)NC(=O)[C@H](Cc1ccccc1)NC(=O)[C@H](CC(N)=O)NC(=O)[C@H](C)NC(=O)[C@H](CC(C)C)NC(=O)[C@H](CCCNC(=N)N)NC(=O)[C@H](CCC(N)=O)NC(=O)[C@@H](NC(=O)[C@H](C)NC(=O)[C@@H]1CSSC[C@H](NC(=O)[C@@H](N)CCCCN)C(=O)N[C@@H](CC(N)=O)C(=O)N[C@@H]([C@@H](C)O)C(=O)N[C@@H](C)C(=O)N[C@@H]([C@@H](C)O)C(=O)N1)[C@@H](C)O)C(C)C)C(=O)N[C@@H](CC(C)C)C(=O)N1CCC[C@H]1C(=O)N1CCC[C@H]1C(=O)N[C@H](C(=O)N[C@@H](CC(N)=O)C(=O)N[C@H](C(=O)NCC(=O)N[C@@H](CO)C(=O)N[C@@H](CC(N)=O)C(=O)N[C@H](C(=O)N[C@@H](Cc1ccc(O)cc1)C(N)=O)[C@@H](C)O)C(C)C)[C@@H](C)O [Pramlintide, L-Lysyl-L-cysteinyl-L-asparaginyl-L-threonyl-L-alanyl-L-threonyl-L-cysteinyl-L-alanyl-L-threonyl-L-glutaminyl-L-arginyl-L-leucyl-L-alanyl-L-asparaginyl-L-phenylalanyl-L-leucyl-L-valyl-L-histidyl-L-seryl-L-seryl-L-asparaginyl-L-phenylalanyl-glycyl-L-protyl-L-isoleucyl-L-leucyl-L-protyl-L-threonyl-L-asparaginyl-L-valyl-L-glycyl-L-seryl-L-prollneamylin (human) acetate hydrate]
duration of the slowing of gastric emptying following Pramlintide administration [1]: approximately 3 hours | Body Weight, % Change from baseline ([2]; 4 weeks): −0.7% | Body Weight, Mean ([2]; 4 weeks): 84.2 kg | HbA1c, % Change from baseline ([2]; 4 weeks): −7.4% | PPG, % Change from baseline ([2]; 4 weeks): −18.9% | PPG, Mean ([2]; 4 weeks): 143 mg/dL | HbA1c, Mean ([2]; 4 weeks, n = 18): 7.0% | Plasma 1,5-AG, % Change from baseline ([2]; 4 weeks, pramlintide 30/60 μg with major meals): 15.9% | Plasma 1,5-AG, Mean ([2]; 4 weeks, pramlintide 30/60 μg with major meals, n = 18): 6.4 µg/mL | Body Weight, % Change from baseline ([2]; 16 weeks): −2.8% | Body Weight, Mean ([2]; 16 weeks): 82.5 kg | HbA1c, % Change from baseline ([2]; 16 weeks): −7.0% | PPG, % Change from baseline ([2]; 16 weeks): −16.8% | PPG, Mean ([2]; 16 weeks): 145 mg/dL | Plasma 1,5-AG, % Change from baseline ([2]; 16 weeks): 23.4% | HbA1c, Mean ([2]; 16 weeks, n = 16): 7.2% | Plasma 1,5-AG, Mean ([2]; 16 weeks, n = 17): 7 µg/mL | Body Weight, % Change from baseline ([2]; 29 weeks): −2.2% | Body Weight, Mean ([2]; 29 weeks): 83.0 kg | HbA1c, % Change from baseline ([2]; 29 weeks): −4.5% | PPG, % Change from baseline ([2]; 29 weeks): −27.2% | PPG, Mean ([2]; 29 weeks): 135 mg/dL | Plasma 1,5-AG, % Change from baseline ([2]; 29 weeks): 29.8% | most common adverse event associated with pramlintide use ([2]; 29 weeks of treatment): mild to moderate nausea | HbA1c, Mean ([2]; 29 weeks, n = 18): 7.4% | Plasma 1,5-AG, Mean ([2]; 29 weeks, n = 18): 6.9 µg/mL | fasting plasma 1,5-AG levels, relative change from baseline ([2]; baseline to wk 29, mean±SE, P<0.01 vs placebo): +30±16% | fasting plasma 1,5-AG levels, absolute change from baseline ([2]; baseline to wk 29, mean±SE, P<0.05 vs placebo): +0.96±0.91 μg/mL | mealtime insulin use ([2]; week 29, pramlintide-treated subjects): significantly decreased | 2 hr PPG excursions, change from baseline ([2]; week 29, n=18, mean±SE, P<0.001 vs placebo): -43.9 ± 10.9 mg/dL | body weight, change from baseline ([2]; week 29, n=18, mean±SE, P<0.01 vs placebo): -2.0 ± 1.2 kg | HbA1c, change from baseline ([2]; week 29, n=18, mean±SE, similar to placebo): −0.18±0.31%
